Laboratory results: PubChem BioAssay AID2060600 (Molecular Pharmacology Branch, DTP, NCI, 2025)

Test system: 996289-038-R-J1-PDC complex spheroid viability
Assay: Anticancer human tumor 996289-038-R-J1-PDC patient-derived colon adenocarcinoma cell line growth inhibition [CLK]
Details: for IC50: curve of first compound; for viability, T/C: stronger effect = lower value; active = viability on the fitted dose curve at most 10% of control; inactive = the rest
How it was run: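 Patient-derived tumor cells grown as complex spheroids with HUVEC endothelial cells and mesenchymal stem cells, treated with drug combinations. Concentrations descend in half-log steps from near clinical Cmax, or from 10 microM if Cmax unknown.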

[1] = second compound 0.0316 µM, first compound 0.0316 µM
[2] = second compound 0.0316 µM, first compound 0.1 µM
[3] = second compound 0.0316 µM, first compound 0.316 µM
[4] = second compound 0.0316 µM, first compound 1 µM
[5] = second compound 0.0316 µM, first compound 3.16 µM
[6] = second compound 0.0316 µM, first compound 10 µM
[7] = second compound 0.1 µM, first compound 0.0316 µM
[8] = second compound 0.1 µM, first compound 0.1 µM
[9] = second compound 0.1 µM, first compound 0.316 µM
[10] = second compound 0.1 µM, first compound 1 µM
[11] = second compound 0.1 µM, first compound 3.16 µM
[12] = second compound 0.1 µM, first compound 10 µM
[13] = second compound 0.316 µM, first compound 0.0316 µM
[14] = second compound 0.316 µM, first compound 0.1 µM
[15] = second compound 0.316 µM, first compound 0.316 µM
[16] = second compound 0.316 µM, first compound 1 µM
[17] = second compound 0.316 µM, first compound 3.16 µM
[18] = second compound 0.316 µM, first compound 10 µM
[19] = second compound 1 µM, first compound 0.0316 µM
[20] = second compound 1 µM, first compound 0.1 µM
[21] = second compound 1 µM, first compound 0.316 µM
[22] = second compound 1 µM, first compound 1 µM
[23] = second compound 1 µM, first compound 3.16 µM
[24] = second compound 1 µM, first compound 10 µM
[25] = second compound 3.16 µM, first compound 0.0316 µM
[26] = second compound 3.16 µM, first compound 0.1 µM
[27] = second compound 3.16 µM, first compound 0.316 µM
[28] = second compound 3.16 µM, first compound 1 µM
[29] = second compound 3.16 µM, first compound 3.16 µM
[30] = second compound 3.16 µM, first compound 10 µM
[31] = second compound 10 µM, first compound 0.0316 µM
[32] = second compound 10 µM, first compound 0.1 µM
[33] = second compound 10 µM, first compound 0.316 µM
[34] = second compound 10 µM, first compound 1 µM
[35] = second compound 10 µM, first compound 3.16 µM
[36] = second compound 10 µM, first compound 10 µM
[37] = second compound 0.0316 µM, first compound 0.00316 µM
[38] = second compound 0.0316 µM, first compound 0.01 µM
[39] = second compound 0.1 µM, first compound 0.00316 µM
[40] = second compound 0.1 µM, first compound 0.01 µM
[41] = second compound 0.316 µM, first compound 0.00316 µM
[42] = second compound 0.316 µM, first compound 0.01 µM
[43] = second compound 1 µM, first compound 0.00316 µM
[44] = second compound 1 µM, first compound 0.01 µM
[45] = second compound 3.16 µM, first compound 0.00316 µM
[46] = second compound 3.16 µM, first compound 0.01 µM
[47] = second compound 10 µM, first compound 0.00316 µM
[48] = second compound 10 µM, first compound 0.01 µM
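Also: spheroids exposed to the agents for 7 days before readout.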

CC(=O)O[C@H]1C(=O)[C@@]2(C)[C@H]([C@H](OC(=O)c3ccccc3)[C@]3(O)C[C@H](OC(=O)[C@H](O)[C@@H](NC(=O)c4ccccc4)c4ccccc4)C(C)=C1C3(C)C)[C@]1(OC(C)=O)CO[C@@H]1C[C@@H]2O + CN1CCN(c2cc(C(=O)Nc3cc4cc(-c5cnn(C)c5)ccc4cn3)ccn2)CC1
> 10000 nM: IC50 (second compound 0.0316 µM)
active: viability, T/C [19] 2.95% | viability, T/C [20] 3.46% | viability, T/C [21] 2.81% | viability, T/C [22] 5.29% | viability, T/C [23] 3.96% | viability, T/C [24] 3.89% | viability, T/C [25] 2.65% | viability, T/C [26] 0.84% | viability, T/C [27] 1.67% | viability, T/C [28] 2.13% | viability, T/C [29] 1.35% | viability, T/C [30] 0.72% | viability, T/C [31] 1.84% | viability, T/C [32] 1.49% | viability, T/C [33] 0.61% | viability, T/C [34] 0.57% | viability, T/C [35] 0.83% | viability, T/C [36] 2.14%
inactive: viability, T/C [1] 94% | viability, T/C [2] 80.4% | viability, T/C [3] 64.1% | viability, T/C [4] 57.5% | viability, T/C [5] 54.8% | viability, T/C [6] 54.5% | viability, T/C [7] 83.2% | viability, T/C [8] 77.6% | viability, T/C [9] 58.6% | viability, T/C [10] 50% | viability, T/C [11] 48.1% | viability, T/C [12] 48.2% | viability, T/C [13] 52.1% | viability, T/C [14] 49.1% | viability, T/C [15] 39.1% | viability, T/C [16] 34.2% | viability, T/C [17] 36.9% | viability, T/C [18] 38.3%
947 nM: IC50 (second compound 0.1 µM)
50.7 nM: IC50 (second compound 0.316 µM)
< 31.6 nM: IC50 (second compound 1 µM) | IC50 (second compound 3.16 µM) | IC50 (second compound 10 µM)

CCc1c2c(nc3ccc(O)cc13)-c1cc3c(c(=O)n1C2)COC(=O)[C@]3(O)CC + CN1CCN(c2cc(C(=O)Nc3cc4cc(-c5cnn(C)c5)ccc4cn3)ccn2)CC1
inactive: viability, T/C [37] 89.7% | viability, T/C [38] 79.2% | viability, T/C [1] 57.2% | viability, T/C [2] 56.6% | viability, T/C [3] 43% | viability, T/C [4] 26.9% | viability, T/C [39] 91% | viability, T/C [40] 70.7% | viability, T/C [7] 55.6% | viability, T/C [8] 44.8% | viability, T/C [9] 33.8% | viability, T/C [10] 19.5% | viability, T/C [41] 57.9% | viability, T/C [42] 51.2% | viability, T/C [13] 46.2% | viability, T/C [14] 35% | viability, T/C [15] 17.7%
< 3.16 nM: IC50 (second compound 1 µM) | IC50 (second compound 3.16 µM) | IC50 (second compound 10 µM)
58.6 nM: IC50 (second compound 0.1 µM)
16.6 nM: IC50 (second compound 0.316 µM)
active: viability, T/C [16] 6.98% | viability, T/C [43] 6.14% | viability, T/C [44] 5.27% | viability, T/C [19] 2.85% | viability, T/C [20] 1.7% | viability, T/C [21] 3.66% | viability, T/C [22] 5.38% | viability, T/C [45] 1.13% | viability, T/C [46] 0.73% | viability, T/C [25] 1.24% | viability, T/C [26] 1.43% | viability, T/C [27] 3.98% | viability, T/C [28] 8.54% | viability, T/C [47] 1.3% | viability, T/C [48] 2.51% | viability, T/C [31] 0.56% | viability, T/C [32] 0.63% | viability, T/C [33] 0.8% | viability, T/C [34] 3.96%
126 nM: IC50 (second compound 0.0316 µM)

Cn1ncnc1[C@H]1c2n[nH]c(=O)c3cc(F)cc(c23)N[C@@H]1c1ccc(F)cc1 + CN1CCN(c2cc(C(=O)Nc3cc4cc(-c5cnn(C)c5)ccc4cn3)ccn2)CC1
< 0.316 nM: IC50 (second compound 1 µM) | IC50 (second compound 3.16 µM) | IC50 (second compound 10 µM)
active: viability, T/C (second compound 1 µM, first compound 0.000316 µM) 5.01% | viability, T/C (second compound 1 µM, first compound 0.001 µM) 4.06% | viability, T/C [43] 4.98% | viability, T/C [44] 6.96% | viability, T/C [19] 6.27% | viability, T/C [20] 4.4% | viability, T/C (second compound 3.16 µM, first compound 0.000316 µM) 0.64% | viability, T/C (second compound 3.16 µM, first compound 0.001 µM) 0.72% | viability, T/C [45] 1.05% | viability, T/C [46] 0.84% | viability, T/C [25] 0.71% | viability, T/C [26] 1.35% | viability, T/C (second compound 10 µM, first compound 0.000316 µM) 0.97% | viability, T/C (second compound 10 µM, first compound 0.001 µM) 0.51% | viability, T/C [47] 1.37% | viability, T/C [48] 2.6% | viability, T/C [31] 0.38% | viability, T/C [32] 0.92%
inactive: viability, T/C (second compound 0.0316 µM, first compound 0.000316 µM) 104% | viability, T/C (second compound 0.0316 µM, first compound 0.001 µM) 102% | viability, T/C [37] 102% | viability, T/C [38] 107% | viability, T/C [1] 101% | viability, T/C [2] 80.4% | viability, T/C (second compound 0.1 µM, first compound 0.000316 µM) 88.8% | viability, T/C (second compound 0.1 µM, first compound 0.001 µM) 96.9% | viability, T/C [39] 87.6% | viability, T/C [40] 97% | viability, T/C [7] 95.5% | viability, T/C [8] 86.8% | viability, T/C (second compound 0.316 µM, first compound 0.000316 µM) 72.3% | viability, T/C (second compound 0.316 µM, first compound 0.001 µM) 70.2% | viability, T/C [41] 74.6% | viability, T/C [42] 71.6% | viability, T/C [13] 67.9% | viability, T/C [14] 53%
> 100 nM: IC50 (second compound 0.0316 µM) | IC50 (second compound 0.1 µM) | IC50 (second compound 0.316 µM)

Nc1ccn(C2OC(CO)C(O)C2(F)F)c(=O)n1 (stereo not given) + CN1CCN(c2cc(C(=O)Nc3cc4cc(-c5cnn(C)c5)ccc4cn3)ccn2)CC1
406 nM: IC50 (second compound 0.1 µM)
active: viability, T/C [19] 4.69% | viability, T/C [20] 4.7% | viability, T/C [21] 3.37% | viability, T/C [22] 6.26% | viability, T/C [23] 3.39% | viability, T/C [24] 3.71% | viability, T/C [25] 1.41% | viability, T/C [26] 1.07% | viability, T/C [27] 1.65% | viability, T/C [28] 1% | viability, T/C [29] 1.01% | viability, T/C [30] 2.06% | viability, T/C [31] 0.95% | viability, T/C [32] 1.01% | viability, T/C [33] 0.41% | viability, T/C [34] 1.58% | viability, T/C [35] 0.37% | viability, T/C [36] 0.35%
inactive: viability, T/C [1] 86.7% | viability, T/C [2] 62.6% | viability, T/C [3] 54.5% | viability, T/C [4] 51.5% | viability, T/C [5] 49.1% | viability, T/C [6] 43.4% | viability, T/C [7] 74.6% | viability, T/C [8] 56.4% | viability, T/C [9] 53.2% | viability, T/C [10] 46.9% | viability, T/C [11] 41.2% | viability, T/C [12] 35.8% | viability, T/C [13] 57.7% | viability, T/C [14] 52% | viability, T/C [15] 43.3% | viability, T/C [16] 39.2% | viability, T/C [17] 36.2% | viability, T/C [18] 26%
< 31.6 nM: IC50 (second compound 1 µM) | IC50 (second compound 3.16 µM) | IC50 (second compound 10 µM)
851 nM: IC50 (second compound 0.0316 µM)
130 nM: IC50 (second compound 0.316 µM)

O=c1[nH]cc(F)c(=O)[nH]1 + CN1CCN(c2cc(C(=O)Nc3cc4cc(-c5cnn(C)c5)ccc4cn3)ccn2)CC1
active: viability, T/C [19] 4.52% | viability, T/C [20] 5.71% | viability, T/C [21] 5.87% | viability, T/C [22] 6.18% | viability, T/C [23] 6.47% | viability, T/C [24] 7.26% | viability, T/C [25] 1.22% | viability, T/C [26] 0.94% | viability, T/C [27] 0.86% | viability, T/C [28] 1.6% | viability, T/C [29] 0.83% | viability, T/C [30] 0.72% | viability, T/C [31] 0.56% | viability, T/C [32] 0.79% | viability, T/C [33] 0.98% | viability, T/C [34] 1.55% | viability, T/C [35] 0.45% | viability, T/C [36] 0.41%
4880 nM: IC50 (second compound 0.316 µM)
inactive: viability, T/C [1] 100% | viability, T/C [2] 91.3% | viability, T/C [3] 76.4% | viability, T/C [4] 74.4% | viability, T/C [5] 74.2% | viability, T/C [6] 71% | viability, T/C [7] 101% | viability, T/C [8] 94.4% | viability, T/C [9] 74.2% | viability, T/C [10] 65.5% | viability, T/C [11] 60.8% | viability, T/C [12] 58.4% | viability, T/C [13] 77.1% | viability, T/C [14] 68.1% | viability, T/C [15] 56.8% | viability, T/C [16] 56.7% | viability, T/C [17] 51.7% | viability, T/C [18] 47.3%
> 10000 nM: IC50 (second compound 0.0316 µM) | IC50 (second compound 0.1 µM)
< 31.6 nM: IC50 (second compound 1 µM) | IC50 (second compound 3.16 µM) | IC50 (second compound 10 µM)
